Laboratory results: patent publication US10570179B2, “Substituted urea depsipeptide analogs as activators of the CLPP endopeptidase” (priority 2016, dated 2020)
Values after ≈ are worked out from the molar mass of the structure shown. Read-outs that look alike come from different tables or passages of the source. Numbered stars: 1 amine (or outer) side, 2 acyl side, 3 side chain; on linkers, the order of the positions; unused ones are H or OH. Bridge positions count the residues as written; N and C are the ends. Square brackets hold non-standard residues; d marks the D form. Peptide text beside a SMILES is read from it. * marks the point of attachment. ξ: configuration not given here. Phe(3,5-Me2) = Cc1cc(C)cc(C[C@H](N)C(=O)O)c1; Phe(3-Me) = Cc1cccc(C[C@H](N)C(=O)O)c1; Pro(4S-Me) = C[C@@H]1CN[C@H](C(=O)O)C1; NH(4-Cl-2-F-phenyl) = Fc1cc(Cl)ccc1N*; Pro(4R-Me) = C[C@H]1CN[C@H](C(=O)O)C1; Propanoyl(3-NMe2) = CN(C)CCC(=O)*; Hyp = O=C(O)[C@@H]1C[C@@H](O)CN1; NH(4-Me-phenyl) = Cc1ccc(N*)cc1; ξNMeThr = CNC(C(=O)O)[C@@H](C)O; aThr = C[C@H](O)[C@H](N)C(=O)O; Pip = O=C(O)[C@@H]1CCCCN1; CO = O=C([*:1])[*:2]

How the values were obtained:
[1] = Microsomal metabolic stability; type: in vitro ADME, mouse
Method: Compounds were initially prepared by dissolving them into DMSO at a final concentration of 10 mM. NADPH regenerating solutions A and B and mouse liver microsomes (CD-1) were obtained from BD Gentest (Woburn, Mass.). Ninety-six well deep well plates were obtained from MidWest Scientific Inc (Valley Park, Mo.).
Sample preparation for microsomal stability was modified from methods of Di, L., et al., Int J Pharm. 2005 Jun. 13; 297(1-2):110-9. A set of incubation times of 0, 15, 30, 60, 120, and 240 minutes were used. Mouse liver microsomal solutions were prepared by adding 58 μL of concentrated human or mouse liver microsomes (20 mg/mL protein concentration) to 1.756 mL of 0.1 M potassium phosphate buffer (pH 7.4) and 5 μL of 0.5 M EDTA to make a 0.6381 mg/mL (protein) microsomal solution. NADPH regenerating agent contained 113 μL of NADPH A, 23 μL of NADPH B, and 315 μL of 0.1 M potassium phosphate buffer (pH 7.4). The diluted test compound solutions (2 μL) were each added directly to a 1.79 mL of liver microsomal solution. This solution was mixed and 90 μL was transferred to 6 time points plates (each in triplicate wells). For the time 0 plate, 225 μL of cold acetonitrile with internal standard ([…] warfarin) was added to each well, followed by addition of NADPH regenerating agent (22.5 μL) and no incubation. For other five time points' plate, NADPH regenerating agent (22.5 μL) was added to each well to initiate the reaction. The plates were incubated at 37° C. for the required time, followed by quenching of the reaction by adding 225 μL of cold acetonitrile with internal standard (4 μg/ml warfarin). All of the plates were sealed and mixed well at 600 rpm for 10 minutes followed by centrifugation at 4000 rpm for 20 minutes. The supernatants (120 μL) were transferred to analytical plates for analysis by LCMS. LCMS conditions were described in the materials and instrumentation section above. The metabolic stability is evaluated via the half-life from least-squares fit of the multiple time points based on first-order kinetics.

Sa-ClpP = target: T1, Sa-ClpP (Staphylococcus aureus, UniProt Q2G036); experiment: ADEP displacement fluorescence polarization assay; type: binding, S. aureus; conditions: displacement of FP probe ADEP 2591 from Sa-ClpP
T1 construct: made in house; host or cells: E. coli BL21 (DE3)
Method: A fluorescence polarization (FP) assay was used to determine the activity of the disclosed compounds in displacing an ADEP analogue from ClpP. Briefly, the assay was performed in black 384 well, flat bottom, low volume plates (Greiner Bio-One, Monroe, N.C., catalog #784076). 20 μL of a pre-equilibrated (1 hr, room temperature) master mix (15 μM Sa-ClpP, 2% DMSO (v/v) and 50 nM FP probe in TrisHCl, pH 8.0)) was pipetted into each well using a Well-Mate (Thermo Scientific, Waltham, Mass.). Sa-ClpP was prepared as described above for the ClpP activation assay. The FP probe was ADEP 2591 (structure shown above). The ADEP 2591 comprises a TAMRA fluorophore linked to a core based on modified ADEP 2378 via a short alkyl linker. Using pin transfer, approximately 0.4 μL (2% v/v DMSO) of each compound or control was added per well. After addition of compounds and controls, plates were allowed to incubate for an additional 120 minutes at room temperature. All assays were performed in triplicate. Polarization was monitored using an EnVision Multilabel reader (Perkin-Elmer, Waltham, Mass.) by exciting the FP probe at 530±25 nm, and monitoring fluorescence intensity of both parallel and perpendicular polarized light at 579±25 nm. Readout was in millipolarization units (mP).
Signal gain and G factors were determined in wells containing 200 μM ADEP 2378, which had been previously verified (data not shown) as containing completely unbound ADEP 2591. Data collected was normalized to values obtained from positive (200 μM ADEP 2378) or negative (DMSO) controls. Curves were fit with non-linear regression using the equation “log [inhibitor] vs. Response-variable slope (four parameters)-symmetrical” in the program Prism 6 (GraphPad Software, La Jolla, Calif. USA, www.graphpad.com). The structures for ADEP 2378 and ADEP 2591 are shown above. ADEP 2378 is (E)-N—((S)-1-(((2R,6S,8aS,14aS,20S,23aS)-2,6-dimethyl-5,8,14,19,23-pentaoxooctadecahydro-1H,5H,14H,19H-pyrido[2,1-i]dipyrrolo[2,1-c:2′,1′-1][1]oxa[4,7,10,13]tetraazacyclohexadecin-20-yl)amino)-1-oxo-3-phenylpropan-2-yl)pent-2-enamide. ADEP 2591 is 5-(3-(3-((6S,9S,11aS,17S,20aS)-6,10-dimethyl-5,8,11,16,20-pentaoxo-17-((S)-2-((E)-pent-2-enamido)-3-phenylpropanamido)hexadecahydro-1H,5H,16H-dipyrrolo[2,1-c:2′,1′-1][1]oxa[4,7,10,13]tetraazacyclohexadecin-9-yl)propyl)thioureido)-2-(6-(dimethylamino)-3-(dimethyliminio)-3H-xanthen-9-yl)benzoate.

S. aureus USA 300 = experiment: Minimal inhibitory concentration, microbroth dilution; type: cell-based; conditions: Staphylococcus aureus
Method in brief: (§1)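 MIC is recorded by eye as the lowest drug concentration that stops bacterial growth. Compound is serially diluted twofold in broth, starting at 200 μM final, and bacteria are added at roughly 10^5 cfu/mL. Incubation runs overnight at 37 °C under aerobic conditions, per CLSI guidance.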

MRSA NRS70 = experiment: as above; type: cell-based; conditions: Staphylococcus aureus
Method in brief: as §1

E. faecails = experiment: as above; type: cell-based; conditions: Enterococcus faecalis
Method in brief: as §1

S. aureus ATCC 29213 = experiment: as above; type: cell-based; conditions: Staphylococcus aureus
Method in brief: as §1

[2] = USA300, MIC, read-out: Minimal Inhibitory Concentrations (μM) S. aureus USA 300
[3] = MIC, read-out: Minimal Inhibitory Concentrations (μM) MRSA NRS70
[4] = MIC, read-out: Minimal Inhibitory Concentrations (μM) E. faecails
[5] = ATCC29213, MIC, read-out: Minimal Inhibitory Concentrations (μM) S. aureus ATCC 29213

T1 sequence (Q2G036 whole entry): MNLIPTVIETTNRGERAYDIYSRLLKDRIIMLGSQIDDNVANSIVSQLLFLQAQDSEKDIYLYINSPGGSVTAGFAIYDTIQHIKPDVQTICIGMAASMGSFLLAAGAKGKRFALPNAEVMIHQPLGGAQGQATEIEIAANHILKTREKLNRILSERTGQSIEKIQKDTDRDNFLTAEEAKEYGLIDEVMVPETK

SMILES: Cc1cc(C)cc(C[C@H](NC(=O)Nc2ccc(Cl)cc2F)C(=O)N[C@@H]2C(=O)N3CCC[C@H]3C(=O)N3CCCC[C@H]3C(=O)N[C@@H](C)C(=O)N3C[C@H](C)C[C@H]3C(=O)O[C@H]2C)c1 [Compound 4, (S)-2-(3-(4-CHLORO-2-FLUOROPHENYL)UREIDO)-3-(3,5-DIMETHYLPHENYL)-N-((2R,6S,8AS,14AS,20S,21S,23AS)-2,6,21-TRIMETHYL-5,8,14,19,23-PENTAOXOOCTADECAHYDRO-1H,5H,14H,19H-PYRIDO[2,1-I]DIPYRROLO[2,1-C:2′,1′-L][1]OXA[4,7,10,13]TETRAAZACYCLOHEXADECIN-20-YL)PROPANAMIDE] ({NH(4-Cl-2-F-phenyl)-CO}-[Phe(3,5-Me2)][aThr]P[Pip]A[Pro(4R-Me)]; ester 2-C)
- Mouse ([1]; CD-1, mouse, pH 7.4): 6.99 ± 1.07 h
- IC50 (Sa-ClpP): 6.45 ± 0.4 µM
- MIC (S. aureus USA 300; [2]): 0.625 µM (≈ 0.524 µg/mL)
- MIC (MRSA NRS70; [3]): 0.156 µM (≈ 0.131 µg/mL)
- MIC (E. faecails; [4]): 1.25 µM (≈ 1.05 µg/mL)
- MIC (S. aureus ATCC 29213; [5]): 0.625 µM (≈ 0.524 µg/mL)

SMILES: Cc1cccc(C[C@H](NC(=O)Nc2ccc(Cl)cc2F)C(=O)N[C@@H]2C(=O)N3CCC[C@H]3C(=O)N(C)C([C@@H](C)O)C(=O)N[C@@H](C)C(=O)N3C[C@H](C)C[C@H]3C(=O)O[C@H]2C)c1 (stereo partly drawn) [Compound 5] ({NH(4-Cl-2-F-phenyl)-CO}-[Phe(3-Me)][aThr]P[ξNMeThr]A[Pro(4R-Me)]; ester 2-C)
- Mouse ([1]; CD-1, mouse, pH 7.4): 1.02 ± 0.2 h
- IC50 (Sa-ClpP): 4.4 ± 0.4 µM
- MIC (S. aureus USA 300; [2]): 0.078 µM (≈ 0.0646 µg/mL)
- MIC (MRSA NRS70; [3]): 0.078 µM (≈ 0.0646 µg/mL)
- MIC (E. faecails; [4]): 0.156 µM (≈ 0.129 µg/mL)
- MIC (S. aureus ATCC 29213; [5]): 0.078 µM (≈ 0.0646 µg/mL)

SMILES: Cc1ccc(NC(=O)N[C@@H](Cc2cccc(C)c2)C(=O)N[C@@H]2C(=O)N3CCC[C@H]3C(=O)N3CCCC[C@H]3C(=O)N[C@@H](C)C(=O)N3C[C@@H](C)C[C@H]3C(=O)O[C@H]2C)cc1 [Compound 45, (S)-3-(M-TOLYL)-2-(3-(P-TOLYL)UREIDO)-N-((2S,6S,8AS,14AS,20S,21S,23AS)-2,6,21-TRIMETHYL-5,8,14,19,23-PENTAOXOOCTADECAHYDRO-1H,5H,14H,19H-PYRIDO[2,1-I]DIPYRROLO[2,1-C:2′,1′-L][1]OXA[4,7,10,13]TETRAAZACYCLOHEXADECIN-20-YL)PROPANAMIDE] ({NH(4-Me-phenyl)-CO}-[Phe(3-Me)][aThr]P[Pip]A[Pro(4S-Me)]; ester 2-C)
- Mouse ([1]; microsomal metabolic stability half-life, mouse liver microsomes): 2.35 ± 0.14 h
- MIC (S. aureus USA 300; USA300, read-out: Minimal Inhibitory Concentrations (μM) S. aureus USA 300, MIC): 10 µM (≈ 7.86 µg/mL)
- MIC (MRSA NRS70; read-out: Minimal Inhibitory Concentrations (μM) MRSA NRS70, MIC): 1.25 µM (≈ 0.982 µg/mL)
- MIC (E. faecails; read-out: Minimal Inhibitory Concentrations (μM) E. faecails, MIC): 1.25 µM (≈ 0.982 µg/mL)
- MIC (S. aureus ATCC 29213; ATCC29213, read-out: Minimal Inhibitory Concentrations (μM) S. aureus ATCC 29213, MIC): 1.25 µM (≈ 0.982 µg/mL)

SMILES: Cc1cccc(C[C@H](NC(=O)Nc2ccc(Cl)cc2F)C(=O)N[C@@H]2C(=O)N3C[C@H](OC(=O)CCN(C)C)C[C@H]3C(=O)N3CCCC[C@H]3C(=O)N[C@@H](C)C(=O)N3C[C@H](C)C[C@H]3C(=O)O[C@H]2C)c1 [Compound 46, (2R,6S,8AS,14AS,16R,20S,21S,23AS)-20-((S)-2-(3-(4-CHLORO-2-FLUOROPHENYL)UREIDO)-3-(M-TOLYL)PROPANAMIDO)-2,6,21-TRIMETHYL-5,8,14,19,23-PENTAOXOOCTADECAHYDRO-1H,5H,14H,19H-PYRIDO[2,1-I]DIPYRROLO[2,1-C:2′,1′-L][1]OXA[4,7,10,13]TETRAAZACYCLOHEXADECIN-16-YL 3-(DIMETHYLAMINO)PROPANOATE] ({NH(4-Cl-2-F-phenyl)-CO}-[Phe(3-Me)][aThr][Hyp](Propanoyl(3-NMe2))[Pip]A[Pro(4R-Me)]; ester 2-C)
- Mouse ([1]; CD-1, mouse, pH 7.4): 0.22 ± 0.0 h
- MIC (S. aureus USA 300; [2]): 0.313 µM (≈ 0.294 µg/mL)
- MIC (MRSA NRS70; [3]): 0.313 µM (≈ 0.294 µg/mL)
- MIC (E. faecails; [4]): 0.156 µM (≈ 0.147 µg/mL)
- MIC (S. aureus ATCC 29213; [5]): 0.313 µM (≈ 0.294 µg/mL)
